{"source": "patent US20100303903A1", "about": "“METHODS OF ENHANCING SELECTIVE SEROTONIN REUPTAKE INHIBITOR EFFECTS IN MAMMALS” (SHIRE LLC, priority 2009, published 2010)", "key": {"[1]": {"tested_on": "mouse", "test": "Behavioural despair test in the mouse (forced swim; duration of immobility and latency to immobility)", "type": "in vivo, Male Rj: NMRI mice", "conditions": "for DURATION OF IMMOBILITY % change / LATENCY % change: (a) compared with vehicle control", "protocol": "Male Rj: NMRI mice (Elevage Janvier, 53940 Le Genest-Saint-Isle, France) having a body weight of between 22 and 29 g were used in the study. The mice were stabilised for 5 days prior to assessment with free access to food and water. […] […] The control vehicle was distilled water. The substances were evaluated in comparison with the control vehicle and were administered dissolved in distilled water.\nThe method, which detects antidepressant activity, follows that described by Porsolt et al (Arch. Int. Pharmacodyn., 1977, 229, 327-336). Mice forced to swim in a situation from which they cannot escape rapidly become immobile. Antidepressants decrease the duration of immobility.\nMice were individually placed in a cylinder (height=24 cm; diameter=13 cm) containing 10 cm water (22° C.) from which they cannot escape. The mice were placed in the water for 6 minutes and the duration of immobility during the last 4 minutes was measured. The latency to the first bout of immobility was also recorded.\n10 mice were studied per group. The test was performed blind.\nL-lysine-d-amphetamine (Vyvanse) (8, 16 and 32 mg/kg) was administered 90 minutes before the test, alone or in combination and compared with a vehicle control group.\nImipramine (128 mg/kg p.o.), administered under the same experimental conditions, was used as a reference substance.\nData were analysed by comparing treated groups with vehicle control using unpaired Student's t tests. In addition, groups treated with combinations of substances were compared with groups administered appropriate substances alone using unpaired Student's t tests.\nThe mouse behavioural despair test is based on the observation that mice, when forced to swim in a situation from which there is no escape, after an initial period of vigorous activity will eventually cease to move altogether making only those movements necessary to keep the head above the water. This behavioural immobility is thought to indicate a state of despair in which the mice have learned that escape is impossible and have resigned themselves to the experimental conditions. This immobility is reduced by anti-depression treatments."}, "[2]": {"tested_on": "mice", "test": "Light-dark box test of anxiety", "type": "in vivo", "conditions": "16 and 32 mg/kg, alone", "from_the_text": "The light/dark test is based on the innate aversion of rodents to brightly/illuminated areas and on the spontaneous exploratory behaviour of rodents in response to mild stress, that is, novel environment and light. The test apparatus consists of a compartment box divided between a dark safe compartment and an illuminated aversive compartment."}, "[3]": {"conditions": "Table 2, 128 mg/kg p.o. -60 min"}, "[4]": {"conditions": "Table 3, 128 mg/kg p.o. -90 min"}}}
{"molecule": "CN(C)CCCN1c2ccccc2CCc2ccccc21", "note": "[Imipramine]", "values": [{"measurement": "DURATION OF IMMOBILITY mean ± s.e.m.", "setting": "[1]; [3]", "result": "70.4 ± 21.4", "unit": "s"}, {"measurement": "LATENCY mean ± s.e.m.", "setting": "[1]; [3]", "result": "243.6 ± 32.7", "unit": "s"}, {"measurement": "DURATION OF IMMOBILITY % change", "setting": "[1]; [3]", "result": "−67", "unit": "%"}, {"measurement": "LATENCY % change", "setting": "[1]; [3]", "result": "+277%"}, {"measurement": "DURATION OF IMMOBILITY mean ± s.e.m.", "setting": "[1]; [4]", "result": "100.6 ± 23.5", "unit": "s"}, {"measurement": "DURATION OF IMMOBILITY % change", "setting": "[1]; [4]", "result": "−48", "unit": "%"}]}
{"molecule": "CN[C@H]1CC[C@@H](c2ccc(Cl)c(Cl)c2)c2ccccc21", "note": "[Sertraline, sertraline]", "values": [{"measurement": "DURATION OF IMMOBILITY mean ± s.e.m.", "setting": "[1]; Table 3, 16 mg/kg p.o. -90 min", "result": "162.7 ± 27.5", "unit": "s"}, {"measurement": "DURATION OF IMMOBILITY % change", "setting": "[1]; Table 3, 16 mg/kg p.o. -90 min", "result": "−16", "unit": "%"}]}
{"molecule": "C[C@@H](Cc1ccccc1)NC(=O)[C@@H](N)CCCCN", "note": "[Vyvanse, N-[(1S)-1-methyl-2-phenylethyl]-L-lysinamide]", "values": [{"measurement": "antidepressant-like activity", "setting": "[1]; 16 and 32 mg/kg, alone", "result": "presence of antidepressant-like activity"}, {"measurement": "DURATION OF IMMOBILITY mean ± s.e.m.", "setting": "[1]; Table 2, 16 mg/kg p.o. -60 min", "result": "173.6 ± 18.8", "unit": "s"}, {"measurement": "LATENCY mean ± s.e.m.", "setting": "[1]; Table 2, 16 mg/kg p.o. -60 min", "result": "100.0 ± 21.3", "unit": "s"}, {"measurement": "DURATION OF IMMOBILITY % change", "setting": "[1]; Table 2, 16 mg/kg p.o. -60 min", "result": "−19", "unit": "%"}, {"measurement": "LATENCY % change", "setting": "[1]; Table 2, 16 mg/kg p.o. -60 min", "result": "+55%"}, {"measurement": "DURATION OF IMMOBILITY mean ± s.e.m.", "setting": "[1]; Table 2, 32 mg/kg p.o. -60 min", "result": "160.3 ± 22.6", "unit": "s"}, {"measurement": "LATENCY mean ± s.e.m.", "setting": "[1]; Table 2, 32 mg/kg p.o. -60 min", "result": "104.3 ± 18.2", "unit": "s"}, {"measurement": "DURATION OF IMMOBILITY % change", "setting": "[1]; Table 2, 32 mg/kg p.o. -60 min", "result": "−25", "unit": "%"}, {"measurement": "LATENCY % change", "setting": "[1]; Table 2, 32 mg/kg p.o. -60 min", "result": "+61%"}, {"measurement": "DURATION OF IMMOBILITY mean ± s.e.m.", "setting": "[1]; Table 3, 8 mg/kg p.o. -90 min", "result": "208.0 ± 7.3", "unit": "s"}, {"measurement": "DURATION OF IMMOBILITY % change", "setting": "[1]; Table 3, 8 mg/kg p.o. -90 min", "result": "+7%"}, {"measurement": "DURATION OF IMMOBILITY mean ± s.e.m.", "setting": "[1]; Table 3, 16 mg/kg p.o. -90 min", "result": "176.8 ± 14.8", "unit": "s"}, {"measurement": "DURATION OF IMMOBILITY % change", "setting": "[1]; Table 3, 16 mg/kg p.o. -90 min", "result": "−9", "unit": "%"}, {"measurement": "DURATION OF IMMOBILITY mean ± s.e.m.", "setting": "[1]; Table 3, 32 mg/kg p.o. -90 min", "result": "123.1 ± 20.8", "unit": "s"}, {"measurement": "DURATION OF IMMOBILITY % change", "setting": "[1]; Table 3, 32 mg/kg p.o. -90 min", "result": "−37", "unit": "%"}, {"measurement": "anxiogenic activity", "setting": "[2]", "result": "absence of any anxiogenic activity"}]}
